Patent US20240091294A1, “Extract of Top Growth of Holy Basil, and Cosmetic or Dermatological Compositions Containing Same” (Laboratoires Expanscience, priority 2021, published 2024)

Legend:
normal human fibroblasts [1] = experiment: Menadione-induced ROS production in fibroblasts; format: cell-based; conditions: 10 mM, 24 h, Menadione 200 μM
Method: (§1) Normal human keratinocytes, on the one hand, and normal human fibroblasts, on the other, were treated for 24 hours with the 0.001% and 0.005% dry matter (dm) holy basil extract obtained according to Example 1 or with 10 mM N-Acetyl Cysteine (NAC), a ROS scavenger molecule used as an antioxidant reference. […] ROS were labeled with the CellRox® probe; intracellular fluorescence, proportional to the amount of ROS, was measured. Results were statistically analyzed using a one-factor ANOVA, followed by a Dunnett's test.

[2] = system: normal human keratinocytes; experiment: Menadione-induced ROS production in keratinocytes; format: cell-based; conditions: 10 mM, 24 h, Menadione 50 μM
Method: as §1

normal human fibroblasts [3] = experiment: Glutathione (GSH) content in fibroblasts under menadione stress; format: cell-based; conditions: 10 mM, 24 h; Menadione 25 μM 4 h
Method: Normal human fibroblasts were treated for 24 hours with 0.001% and 0.005% dm holy basil extract obtained according to Example 1 or with the antioxidant reference, 10 mM NAC. Oxidative stress was then induced by 4-hour incubation in the presence of 25 μM menadione. GSH stock was monitored using the fluorescent probe Monochlorobimane (Mbi); intracellular fluorescence, proportional to the amount of GSH, was measured.

[4] = system: normal human epidermal keratinocytes; experiment: γH2AX expression (DNA double-strand breaks) in keratinocytes under camptothecin stress; format: cell-based; conditions: reference, 24 h pre-incubation; camptothecin 1 h
Method: Normal human epidermal keratinocytes were pre-incubated for 24 hours in the presence of the holy basil extract obtained in Example 1 at 0.001% and 0.005% dm or the reference nicotinamide, prior to 1-hour exposure to camptothecin. Camptothecin is a genotoxic compound, a toposiomerase I inhibitor, used for the induction of DNA double-strand breaks. Double-strand breaks were detected by immunostaining of γH2AX (phosphorylation of histone H2AX which intervenes early in response to double-strand breaks) and quantified by image analysis. Results were statistically analyzed using an ANOVA followed by a Tukey test.

[5] = system: normal human dermal fibroblasts; experiment: Gene expression of dermal matrix markers in fibroblasts (qPCR); format: cell-based; conditions: 5 ng/ml, 48 h
Method: Normal human dermal fibroblasts were incubated for 48 hours in the presence of holy basil extract obtained according to Example 1 at 0.001% and 0.005% dm or TGFβ1 at 5 ng/ml, the positive assay reference.
Gene expression of Collagen I, Elastin, Dermatopontin and MMP1 (Matrix-Metalloproteinase-1) was assessed by real-time quantitative PCR.
Results were statistically analyzed using a one-factor analysis of variance (ANOVA), followed by a Dunnett's post-test.

[6] = system: normal human keratinocytes; experiment: H2O2-induced ROS production in normal human keratinocytes; format: cell-based; conditions: 24 h, H2O2 100 μM 20 min
Method: Quercetin at 10 μM or Vitamin C at 500 μM, before incorporation of the H2DCF-DA probe. Keratinocytes were then stimulated with 100 μM hydrogen peroxide (H2O2) for 20 minutes. ROS production was assessed by measuring the fluorescence emitted by the probe on contact with ROS. Results were statistically analyzed using a one-way ANOVA followed by a Tukey test.

[7] = system: normal human keratinocytes; experiment: Lipid peroxidation in keratinocytes under cumene hydroperoxide stress; format: cell-based; conditions: 200 μM, 24 h, Cumene 200 μM
Method: (§2) Normal human keratinocytes, on the one hand, and normal human fibroblasts, on the other, were treated for 24 hours with the 0.001% and 0.005% dm holy basil extract obtained according to example 1 or with the antioxidant reference, vitamin E at 200 μM. Oxidative stress was then induced by incubation for 1 hour in the presence of cumene hydroperoxide at 200 or 50 μM.
(§3) Results were statistically analyzed using a one-way ANOVA followed by a Tukey test.

normal human fibroblasts [8] = experiment: Lipid peroxidation in fibroblasts under cumene hydroperoxide stress; format: cell-based; conditions: 200 μM, 24 h, Cumene 50 μM
Method: as §2, §3

[9] = system: normal human keratinocytes; experiment: IL8 produced by keratinocytes under PMA-induced inflammatory stress (ELISA); format: cell-based; conditions: 24 h pre-incubation, PMA 10 μg/ml 24 h
Method: Normal human keratinocytes were pre-incubated for 24 hours in the presence of holy basil extract obtained according to Example 1 at 0.001%, 0.005% or 0.01% dm or dexamethasone at 0.1 μM, an anti-inflammatory reference. The cells were then stimulated by 24-hour treatment in the presence of 10 μg/mL PMA (Phorbol-Myristate-Acetate).
At the end of treatment, the IL8 produced was quantified by ELISA assay in the culture supernatants.
Results were analyzed statistically using the Student t-test.

reconstructed epidermis = experiment: IL1α produced by PMA-stimulated reconstructed epidermis; format: cell-based, human; conditions: systemic, 24 h pre-incubation, PMA 0.5 μg/ml 24 h
Method: […] After 24 hours pre-incubation, the epidermis was stimulated with 0.5 μg/mL PMA and incubated again for 24 hours.
Culture supernatants were collected, an IL1α assay was performed on the one hand and, on the other, these supernatants (conditioned media) were plated onto cultures of normal human dermal fibroblasts.
Results were statistically analyzed using an ANOVA followed by a Tukey test.

[10] = system: normal human epidermal keratinocytes; experiment: Aquaporin-3 production in keratinocytes (immunostaining); format: cell-based; conditions: reference, 24 h
Method: Normal human epidermal keratinocytes were incubated for 24 hours in the presence of the holy basil extract obtained in Example 1 at 0.001% and 0.005% dm or retinoic acid, positive reference. Aquaporin-3 expression was assessed by immunostaining and quantified by image analysis.

CC(=O)N[C@@H](CS)C(=O)O [NAC, N-Acetyl Cysteine]
ROS (Arbitrary units) (normal human fibroblasts [1]): 3114 ± 14.2 Arbitrary units | inhibition at 10000 µM (normal human fibroblasts [1]; Homo sapiens, Fibroblast): 50% | ROS (Arbitrary units) [2]: 2490 ± 94.3 Arbitrary units | inhibition at 10000 µM ([2]; Homo sapiens, Keratinocyte): 100% | GSH (Arbitrary units) (normal human fibroblasts [3]): 4997.7 ± 947.2 Arbitrary units | Increase of GSH (normal human fibroblasts [3]): 44%

NC(=O)c1cccnc1 [Nicotinamide, nicotinamide]
Inhibition of γH2AX expression [4]: −106% | γH2AX, Cy5 (Intensity) [4]: 3052.8 Intensity

TGFB1: TGFβ1 at 5 ng/ml, the positive assay reference
Collagen I gene expression (Relative quantity) [5]: 10.86 ± 4.17 | Dermatopontin gene expression (Relative quantity) [5]: 43.17 ± 5.97 | Elastin gene expression (Relative quantity) [5]: 67.5 ± 20.55 | MMP1 gene expression (Relative quantity) [5]: 0.33 ± 0.13 | Collagen I gene expression (% of induction) ([5]; vs control cells): +786% | Dermatopontin gene expression (% of induction) ([5]; vs control cells): +5001% | Elastin gene expression (% of induction) ([5]; vs control cells): +8148% | MMP1 gene expression (% of induction) ([5]; vs control cells): −65%

O=C1O[C@H]([C@@H](O)CO)C(O)=C1O [Vitamin C]
ROS (Fluorescence units) ([6]; 500 μM): 7165.2 ± 586.2 Fluorescence units | inhibition at 500 µM ([6]; Homo sapiens, Keratinocyte, 500 μM): 102%

vitamin E
Inhibition of lipid peroxidation [7]: 93% | Peroxidized lipids (Arbitrary units) [7]: 4485.3 ± 43.3 Arbitrary units | Inhibition of lipid peroxidation (normal human fibroblasts [8]): 71% | Peroxidized lipids (Arbitrary units) (normal human fibroblasts [8]): 11413.4 ± 69.4 Arbitrary units

C[C@@H]1C[C@H]2[C@@H]3CCC4=CC(=O)C=C[C@]4(C)[C@@]3(F)[C@@H](O)C[C@]2(C)[C@@]1(O)C(=O)CO [dexamethasone]
IL8 ([9]; 0.1 μM): 4194.4 ± 814.1 pg/mL | inhibition at 0.1 µM ([9]; Homo sapiens, Keratinocyte, read-out: Inhibition of IL8 production): 40% | Interleukine-1 alpha (reconstructed epidermis; 10 μM): 334 ± 41 pg/mL | inhibition at 10 µM (reconstructed epidermis; Homo sapiens, read-out: Inhibition of IL1α release): 48%

O=c1c(O)c(-c2ccc(O)c(O)c2)oc2cc(O)cc(O)c12 [Quercetin]
ROS (Fluorescence units) ([6]; 10 μM): 17453.8 ± 2880.6 Fluorescence units | inhibition at 10 µM ([6]; Homo sapiens, Keratinocyte, 10 μM): 85%

CC1=C(/C=C/C(C)=C/C=C/C(C)=C/C(=O)O)C(C)(C)CCC1 [Retinoic acid, retinoic acid]
Aquaporin-3 (% of positive cells) [10]: 0.323 ± 0.004 % of positive cells | Increase of Aquaporin-3 [10]: +45%
